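Exposure lasted 48 hours, with cells grown in 96-well plates and compounds tested at five concentrations. GI50 = concentration required for 50% inhibition of growth.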 Active and inactive are the calls of the source. Cut-off read from the data, not from the text of the source: active = GI50 up to about 1.1 µM and inactive = higher.
Legend:
Test in all cases: inhibition of tumour cell growth, NCI panel, 48 h
[1] = test system: SF-539
[2] = test system: IGROV-1
[3] = test system: A549
[4] = test system: BT-549
[5] = test system: MCF7
[6] = test system: CCRF-CEM
[7] = test system: LOX IMVI
[8] = test system: NCI/ADR-RES
[9] = test system: SNB-75
[10] = test system: SK-MEL-2
[11] = test system: M14
[12] = test system: HT-29
[13] = test system: HOP-92
[14] = test system: HCT-116
[15] = test system: Hs-578T
[16] = test system: NCI-H23
[17] = test system: UACC-62
[18] = test system: RPMI-8226
[19] = test system: MDA-N
[20] = test system: K562

Measured: GI50

CCOc1ccc(/C=C2\NC(=S)N(/C=C3\C(=O)Oc4ccccc4C3=O)C2=O)cc1
inactive: [1] 16.3 µM | [2] 24.8 µM | [3] > 10 µM | [4] 23.6 µM | [5] 17.8 µM | [6] 15.1 µM | [7] 28.9 µM | [8] 23.1 µM | [9] 23 µM | [10] 17.3 µM | [11] 31.6 µM | [12] 32.5 µM | [13] 22.8 µM | [14] 19.5 µM | [15] 23.4 µM | [16] 30 µM | [17] 17.5 µM

COC(=O)C1(Cc2ccccc2)Cc2ccccc2C1=O (configuration not stated)
inactive: [18] 35 µM | [1] > 100 µM | [2] 72.8 µM | [19] 32.1 µM | [3] 32.9 µM | [5] 42.1 µM | [20] 35 µM | [6] 35.8 µM | [7] 43.7 µM | [8] 25.7 µM | [9] 42.7 µM | [10] 19.1 µM | [11] 32.5 µM | [12] 45.3 µM | [13] 59.2 µM | [14] 36.1 µM | [15] 61.1 µM | [16] 45.8 µM | [17] 67.3 µM

COc1cc([C@@H]2c3cc4c(c(O)c3C[C@H]3COC(=O)[C@@H]32)OCO4)cc(OC)c1O
inactive: [9] 25.4 µM
active: [18] 0.026 µM | [2] 0.0277 µM | [3] < 0.02 µM | [5] 0.0377 µM | [20] 0.0243 µM | [8] 0.0231 µM | [10] 0.027 µM | [11] 0.00278 µM | [12] 0.577 µM | [13] < 0.02 µM | [14] 0.0205 µM | [16] 0.0853 µM | [17] < 0.02 µM

Cc1c(O)c(C)c2c(C)cn(C(=O)C(C)(C)C)c2c1C
inactive: [18] 29.6 µM | [1] 16.4 µM | [2] 21.6 µM | [19] 21.2 µM | [3] 22.9 µM | [5] 3.27 µM | [20] 24 µM | [6] 19.8 µM | [7] 35 µM | [8] 34.1 µM | [10] 28.2 µM | [11] 16.7 µM | [12] 17.3 µM | [14] 21 µM | [15] 28.4 µM | [16] 15.5 µM | [17] 14.7 µM
active: [9] 0.0201 µM | [13] 0.0206 µM

CC(=O)[C@H]1[C@@H](OCc2ccccc2)O[N+]([O-])=C(C)[C@@H]1c1ccccc1
inactive: [18] 14.7 µM | [1] 18.6 µM | [2] 35.8 µM | [19] 41.7 µM | [3] 53.2 µM | [5] 30.8 µM | [20] 14.5 µM | [6] 14.9 µM | [7] 21 µM | [8] 39.1 µM | [9] > 100 µM | [10] 63.2 µM | [11] 36.1 µM | [12] 19.6 µM | [13] 24.8 µM | [15] 19.9 µM | [16] 54.7 µM | [17] 49.2 µM

CC(C)(O)CCC(O)C(C)(O)C1CCC2(O)C3=CC(=O)C4(O)CC(O)C(O)CC4(C)C3CCC12C.CC(C)(O)CCC(O)C(C)(O)C1CCC2(O)C3=CC(=O)C4CC(O)C(O)CC4(C)C3CCC12C (configuration not stated)
inactive: [1] > 100 µM | [2] > 100 µM | [3] > 100 µM | [4] > 100 µM | [5] 86.7 µM | [20] > 100 µM | [6] > 100 µM | [7] > 100 µM | [8] > 100 µM | [9] > 100 µM | [10] > 100 µM | [11] > 100 µM | [12] > 100 µM | [13] > 100 µM | [14] > 100 µM | [15] > 100 µM | [16] > 100 µM | [17] > 100 µM

O=C(NC1CCCCC1)c1nn[nH]c1Cl
inactive: [1] > 100 µM | [2] > 100 µM | [3] > 100 µM | [4] > 100 µM | [5] > 100 µM | [20] > 100 µM | [6] > 100 µM | [7] > 100 µM | [8] > 100 µM | [10] > 100 µM | [11] > 100 µM | [12] > 100 µM | [13] > 100 µM | [14] > 100 µM | [15] > 100 µM | [16] > 100 µM | [17] > 100 µM

CC1CCCCN1CC(=O)c1ccc2c(c1)Sc1ccccc1O2 (configuration not stated)
inactive: [18] > 100 µM | [1] 16.9 µM | [2] 6.49 µM | [19] 15.2 µM | [3] 14.6 µM | [5] 16 µM | [20] 30.3 µM | [6] 16.5 µM | [7] 9.93 µM | [8] 16.7 µM | [9] 11 µM | [10] 17.9 µM | [11] 19.5 µM | [12] 8.61 µM | [13] 13.2 µM | [14] 14.2 µM | [15] 10.8 µM | [16] 15.2 µM | [17] 13.3 µM

B.CC(=O)OC1CN2CCC1CC2 (configuration not stated)
inactive: [1] > 100 µM | [2] > 100 µM | [3] > 100 µM | [5] > 100 µM | [20] > 100 µM | [6] > 100 µM | [8] > 100 µM | [10] > 100 µM | [11] > 100 µM | [12] > 100 µM | [14] > 100 µM | [15] > 100 µM | [16] > 100 µM | [17] > 100 µM

O=C1O[C@@H](c2ccc3c(c2)OCO3)C2C(=O)O[C@@H](c3ccc4c(c3)OCO4)C12 (some centres not stated)
inactive: [18] > 100 µM | [1] > 100 µM | [2] > 100 µM | [3] > 100 µM | [20] > 100 µM | [6] > 100 µM | [7] > 100 µM | [9] 83.6 µM | [10] > 100 µM | [11] > 100 µM | [12] > 100 µM | [13] > 100 µM | [14] > 100 µM | [16] > 100 µM | [17] > 100 µM

O=C1[C@H](O)[C@@H]2CCC[C@@]23CCCN13
inactive: [18] > 100 µM | [1] > 100 µM | [2] > 100 µM | [19] > 100 µM | [3] > 100 µM | [5] > 100 µM | [20] > 100 µM | [6] 94.4 µM | [7] > 100 µM | [8] > 100 µM | [9] > 100 µM | [11] > 100 µM | [12] > 100 µM | [13] > 100 µM | [14] > 100 µM | [15] > 100 µM | [16] > 100 µM | [17] > 100 µM

CC(=O)/C(=C/N1CC(=O)NC1=S)C(=O)Nc1ccccc1C
inactive: [1] > 100 µM | [2] > 100 µM | [19] > 100 µM | [3] > 100 µM | [4] > 100 µM | [7] > 100 µM | [8] > 100 µM | [9] > 100 µM | [10] > 100 µM | [11] > 100 µM | [12] > 100 µM | [13] > 100 µM | [14] > 100 µM | [16] > 100 µM

CC(C)(C)c1cc2c(O)c(c1)Cc1cc(C(C)(C)C)cc(c1O)Cc1cc(C(C)(C)C)cc(c1O)Cc1cc(C(C)(C)C)cc(c1O)Cc1cc(C(C)(C)C)cc(c1O)Cc1cc(C(C)(C)C)cc(c1O)Cc1cc(C(C)(C)C)cc(c1O)Cc1cc(C(C)(C)C)cc(c1O)C2
inactive: [18] > 50 µM | [1] > 50 µM | [2] > 50 µM | [19] > 50 µM | [3] > 50 µM | [5] > 50 µM | [20] > 50 µM | [6] > 50 µM | [8] > 50 µM | [9] > 50 µM | [10] > 50 µM | [11] > 50 µM | [12] > 50 µM | [13] > 50 µM | [14] > 50 µM | [15] > 50 µM | [16] > 50 µM | [17] > 50 µM

CN(N=O)C(=O)NC(CCCCNC(=O)OCc1ccccc1)C(=O)OCc1ccccc1 (configuration not stated)
inactive: [18] 33.5 µM | [1] 17.4 µM | [2] > 100 µM | [3] 83 µM | [20] 48.8 µM | [6] 25 µM | [7] 17.4 µM | [9] 18.8 µM | [10] 30.1 µM | [11] 19.3 µM | [12] 66.4 µM | [13] 18.5 µM | [14] 56.8 µM | [16] 20.7 µM | [17] 13.7 µM

CC(C)(C)OC(=O)N1NC(c2ccccc2)CC1c1ccccc1 (configuration not stated)
inactive: [18] 35.6 µM | [1] 42.5 µM | [19] 42.6 µM | [3] 13.8 µM | [5] 23.7 µM | [20] 31.7 µM | [6] 19 µM | [8] 20.2 µM | [9] 17.1 µM | [11] 16.3 µM | [12] 26.7 µM | [13] 37.7 µM | [14] 29.7 µM | [15] 36.6 µM | [16] 17.4 µM | [17] 20.6 µM

Cc1ccc(N2CCc3c(C)c(C#N)c4nc5ccccc5n4c32)cc1
inactive: [1] 39.3 µM | [2] 68.1 µM | [3] > 100 µM | [4] > 100 µM | [5] > 100 µM | [6] > 100 µM | [7] > 100 µM | [8] > 100 µM | [9] 22.7 µM | [10] 23.8 µM | [12] > 100 µM | [13] 10.4 µM | [14] > 100 µM | [15] 16 µM | [16] > 100 µM | [17] 27 µM

From ChEMBL document CHEMBL1201862, “PubChem BioAssay data set” (2004)
